Laboratory results from ChEMBL document CHEMBL1201862, “PubChem BioAssay data set” (2004).
The source made the active and inactive calls.

Columns and labels:
[1] = optical artefact potency, substrate without enzyme – biochemical, fluorescence intensity, triplicate, artefact control for kallikrein-7 zymogen activator project, dose response (AID 720493)
[2] = biological target: Kallikrein-7 (Homo sapiens, UniProt P49862); test: Fluorescence Intensity-based biochemical primary high throughput dose response assay to identify activators of kallikrein-7 (K7) zymogen.
Kallikrein-7, sequence (P49862 whole entry): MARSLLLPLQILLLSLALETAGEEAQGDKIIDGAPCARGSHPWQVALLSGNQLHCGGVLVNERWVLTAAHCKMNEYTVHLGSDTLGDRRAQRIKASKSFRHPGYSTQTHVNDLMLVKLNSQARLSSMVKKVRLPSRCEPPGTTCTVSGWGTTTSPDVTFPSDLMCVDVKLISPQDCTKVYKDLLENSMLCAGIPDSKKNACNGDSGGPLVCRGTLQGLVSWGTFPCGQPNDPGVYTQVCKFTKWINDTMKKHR

[3] = cells; conditions: HEK293
[4] = HepG2 cell cytotoxicity, dose response, cytotoxicity control for non-replicating M. tuberculosis project (AID 489018); format: functional; conditions: Mycobacterium tuberculosis
[5] = biological target: T1, Short transient receptor potential channel 4 (Mus musculus, UniProt Q9QUQ5); test: calcium entry via TRPC4 opening agents – cell-based, HEK293 TRPC4/mu-opioid, Fluo-4 calcium, dose response (AID 434937); format: functional
T1 sequence (Q9QUQ5 whole entry): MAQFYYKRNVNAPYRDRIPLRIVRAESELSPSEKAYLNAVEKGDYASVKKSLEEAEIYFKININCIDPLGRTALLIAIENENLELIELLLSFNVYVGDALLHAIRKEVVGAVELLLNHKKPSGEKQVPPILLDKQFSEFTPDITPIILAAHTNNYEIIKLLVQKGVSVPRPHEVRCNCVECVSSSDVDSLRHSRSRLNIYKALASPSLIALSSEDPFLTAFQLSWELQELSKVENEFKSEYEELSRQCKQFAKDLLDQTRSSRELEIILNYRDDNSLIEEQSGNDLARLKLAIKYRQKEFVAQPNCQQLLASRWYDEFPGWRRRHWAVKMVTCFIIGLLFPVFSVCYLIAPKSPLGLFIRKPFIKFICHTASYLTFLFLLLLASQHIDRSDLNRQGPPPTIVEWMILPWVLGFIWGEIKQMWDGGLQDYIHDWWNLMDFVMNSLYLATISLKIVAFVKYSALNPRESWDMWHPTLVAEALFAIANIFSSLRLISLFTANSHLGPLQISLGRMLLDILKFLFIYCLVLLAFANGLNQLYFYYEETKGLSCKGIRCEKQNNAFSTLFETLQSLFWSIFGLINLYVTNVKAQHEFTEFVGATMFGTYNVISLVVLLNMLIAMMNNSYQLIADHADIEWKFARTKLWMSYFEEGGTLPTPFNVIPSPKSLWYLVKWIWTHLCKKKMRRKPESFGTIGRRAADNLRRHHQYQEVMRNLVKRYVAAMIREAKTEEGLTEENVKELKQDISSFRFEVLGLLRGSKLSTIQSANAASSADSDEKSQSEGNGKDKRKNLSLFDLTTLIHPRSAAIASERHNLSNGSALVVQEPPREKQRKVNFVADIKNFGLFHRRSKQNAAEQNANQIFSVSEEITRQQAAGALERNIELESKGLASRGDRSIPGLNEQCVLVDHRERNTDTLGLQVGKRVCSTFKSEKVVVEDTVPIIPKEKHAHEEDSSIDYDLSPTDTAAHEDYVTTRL

[6] = HGIII-sPLA2 enzyme inhibition potency – biochemical, QFRET, IC50, dose response (AID 743457);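 also: green fluorescence rise as the enzyme cleaves BODIPY PC-A2 in liposomes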
[7] = THP-1 cell cytotoxicity, dose response, cytotoxicity control for non-replicating M. tuberculosis project (AID 489025); format: functional
[8] = viability loss in HepG2 liver cells – cell-based, ATP luminescence, cherry-pick, set 6, cytotoxicity control, dose response (AID 1053125); format: functional
[9] = Vero E6 cell cytotoxicity, dose response, cytotoxicity control for non-replicating M. tuberculosis project, secondary assay (AID 492998); format: functional, VeroE6; conditions: Vero C1008
[10] = tested on: Vero; test: cells; format: functional, cell-based; conditions: Chlorocebus sabaeus
[11] = tested on: Vero; test: cells; format: functional; conditions: Chlorocebus sabaeus
[12] = cells; format: functional
[13] = cells; conditions: A549
[14] = biological target: NAD-dependent protein deacylase sirtuin-5, mitochondrial (Homo sapiens, UniProt Q9NXA8); test: sirtuin-5 deacylation blockers, concentration series – biochemical, fluorescence imaging, cherry-pick, set 5, dose response (AID 720591);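 also: desuccinylation of succinyl peptide AMC substrate read as fluorescence after trypsin release; potency of inhibitors that lower fluorescence and may act on trypsin instead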
NAD-dependent protein deacylase sirtuin-5, mitochondrial, sequence (Q9NXA8 whole entry): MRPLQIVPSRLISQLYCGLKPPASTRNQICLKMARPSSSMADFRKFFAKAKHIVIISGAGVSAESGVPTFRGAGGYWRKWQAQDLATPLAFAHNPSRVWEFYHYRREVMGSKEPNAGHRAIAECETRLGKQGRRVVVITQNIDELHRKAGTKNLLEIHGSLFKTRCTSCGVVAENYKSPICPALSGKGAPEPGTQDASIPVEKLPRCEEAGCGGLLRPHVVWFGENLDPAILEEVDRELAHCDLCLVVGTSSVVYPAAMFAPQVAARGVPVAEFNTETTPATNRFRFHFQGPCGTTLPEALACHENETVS

[15] = biological target: DNA (cytosine-5)-methyltransferase 1 (Homo sapiens, UniProt P26358); test: inhibition of DNA methylation by DNMT1 – biochemical, fluorescent molecular beacon, confirmation (AID 602386); format: functional
DNA (cytosine-5)-methyltransferase 1, sequence (P26358 whole entry): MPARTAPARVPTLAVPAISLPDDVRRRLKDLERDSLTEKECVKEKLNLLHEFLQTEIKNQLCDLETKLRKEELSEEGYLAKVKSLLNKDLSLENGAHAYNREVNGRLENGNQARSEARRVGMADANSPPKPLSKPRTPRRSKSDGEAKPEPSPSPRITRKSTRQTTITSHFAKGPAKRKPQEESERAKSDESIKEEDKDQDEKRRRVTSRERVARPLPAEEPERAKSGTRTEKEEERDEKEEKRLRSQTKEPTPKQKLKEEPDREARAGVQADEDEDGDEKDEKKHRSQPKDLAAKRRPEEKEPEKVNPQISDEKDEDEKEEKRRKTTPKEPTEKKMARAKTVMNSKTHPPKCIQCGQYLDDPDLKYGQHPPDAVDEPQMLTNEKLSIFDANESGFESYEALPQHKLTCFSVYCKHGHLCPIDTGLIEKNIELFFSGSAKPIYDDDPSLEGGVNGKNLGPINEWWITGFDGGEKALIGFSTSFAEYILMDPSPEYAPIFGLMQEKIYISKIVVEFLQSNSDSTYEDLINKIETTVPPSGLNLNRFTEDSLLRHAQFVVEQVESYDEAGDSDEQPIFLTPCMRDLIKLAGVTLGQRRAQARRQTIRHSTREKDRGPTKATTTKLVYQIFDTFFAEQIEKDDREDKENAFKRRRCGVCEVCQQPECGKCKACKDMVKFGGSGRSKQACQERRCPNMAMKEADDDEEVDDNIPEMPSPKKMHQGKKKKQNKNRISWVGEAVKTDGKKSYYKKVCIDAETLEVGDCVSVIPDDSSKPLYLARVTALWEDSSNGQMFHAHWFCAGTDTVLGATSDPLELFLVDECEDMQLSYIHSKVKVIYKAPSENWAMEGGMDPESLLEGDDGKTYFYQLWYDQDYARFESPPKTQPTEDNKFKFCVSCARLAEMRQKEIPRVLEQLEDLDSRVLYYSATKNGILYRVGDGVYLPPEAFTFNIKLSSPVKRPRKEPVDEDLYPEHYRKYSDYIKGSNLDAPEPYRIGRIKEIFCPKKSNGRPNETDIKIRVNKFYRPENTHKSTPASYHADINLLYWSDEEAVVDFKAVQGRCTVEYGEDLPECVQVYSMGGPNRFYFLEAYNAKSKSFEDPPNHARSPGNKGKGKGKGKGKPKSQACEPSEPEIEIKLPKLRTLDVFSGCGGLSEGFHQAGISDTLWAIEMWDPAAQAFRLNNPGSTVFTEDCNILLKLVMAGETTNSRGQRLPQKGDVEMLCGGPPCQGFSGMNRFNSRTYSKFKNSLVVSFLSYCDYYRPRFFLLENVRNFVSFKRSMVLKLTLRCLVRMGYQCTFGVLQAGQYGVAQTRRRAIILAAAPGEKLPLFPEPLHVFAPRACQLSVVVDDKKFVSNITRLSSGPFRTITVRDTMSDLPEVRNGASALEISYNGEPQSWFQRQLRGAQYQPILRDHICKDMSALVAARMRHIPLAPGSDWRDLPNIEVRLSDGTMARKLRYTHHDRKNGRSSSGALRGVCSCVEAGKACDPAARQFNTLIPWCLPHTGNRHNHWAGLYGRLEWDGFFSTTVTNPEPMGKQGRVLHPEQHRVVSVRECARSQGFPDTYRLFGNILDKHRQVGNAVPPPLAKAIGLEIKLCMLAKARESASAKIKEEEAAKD

[16] = Luminescence Cell-Based Dose Response HTS to Identify Inhibitors of 5'UTR Stem-Loop Driven Prion Protein mRNA Translation in H4 Neuroglioblastoma Cells. [Related pubchem assays: 1827 (Project Summary), 1813 (Primary HTS)]; format: functional
[17] = tested on: BJ; test: BJ-TERT fibroblast viability loss – cell-based, RAS-independent, luminescence, dose response (AID 1933); format: functional; conditions: Homo sapiens
[18] = luciferase reporter signal suppression in cells – H4 neuroglioma cells, luminescence, dose response (AID 1990); format: functional, cell-based
[19] = tested on: BJ; test: BJ-TERT-LT-ST fibroblast viability loss – cell-based, RAS-independent, luminescence, dose response (AID 1935); format: functional; conditions: Homo sapiens;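 also: BJ fibroblasts immortalized with TERT plus LT and ST oncogenes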
[20] = alpha-synuclein stem-loop luciferase translation blockers – H4 neuroglioma cells, luminescence, confirmation (AID 1988); format: functional, cell-based
[21] = HEK-293T viability loss after treatment – luminescence, T-cell screen hits, cytotoxicity control for TCR NF-kB inhibitor project, dose response (AID 489026); format: functional, cell-based;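 also: cells exposed to compound about 14 hours before the viability readout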
[22] = tested on: BJ; test: growth inhibition of engineered Ras-driven BJ cells – cell-based, alamar blue fluorescence, cherrypicked samples, dose response (AID 2631); format: functional; conditions: Homo sapiens;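 also: confirmatory dose-response assay in RAS-dependent BJ fibroblasts engineered with TERT, LT and ST, with cytotoxicity read by fluorescence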
[23] = tested on: BJ; test: cells; format: functional, cell-based; conditions: Homo sapiens
[24] = toxicity toward HEK293 cells – cell-based, dry powder samples, cytotoxicity control, dose response (AID 720567); format: functional
[25] = toxicity toward HepG2 hepatoma cells – cell-based, dry powder samples, cytotoxicity control, dose response (AID 720568); format: functional
[26] = DRD fibroblast viability loss – cell-based, non-viral oncogenic, luminescence, dose response (AID 1934); format: functional; conditions: Homo sapiens
[27] = activation of miR-122 Renilla sensor silencing – cell-based, Huh7 psiCHECK-miR122, Renilla luciferase, cherry-picked, dose response (AID 651956); format: functional;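 also: huh7 hepatoma cells stably carrying a psiCHECK-2 miR-122 sensor plasmid; renilla luciferase signal reporting endogenous miR-122 activity after 48 h compound exposure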
[28] = P. falciparum Dd2 growth inhibitors, dose response, SYBR Green, cherry-picked samples (AID 1159567); format: functional, cell-based
[29] = toxicity to human hepatoma HepG2 cells – cell-based, cherry-picked samples, cytotoxicity control, dose response (AID 1159577); format: functional
[30] = reduced cellular PGC1a acetyl-lysine signal – cell-based, cherry-picked samples, dose response (AID 720514); format: functional;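 also: potency may reflect raised or lowered acetylation signal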
[31] = general mammalian cell viability loss – activator set, cherry-pick, cytotoxicity control for miR-122 modulator project, dose response (AID 720690); format: functional, cell-based;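 also: HEK293T human cells scored for general mammalian cytotoxicity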
[32] = anti-trypanosomal activity in BESM host cells – imaging, CA-I/72 strain, bovine embryo skeletal muscle, dry powder, dose response (AID 651885); format: functional, cell-based
[33] = Trypanosoma cruzi replication inhibitors in host cells – cell-based, plate reader, dry powder samples, dose response (AID 651845); format: functional
[34] = HIV-1 AD8 envelope cell-cell fusion blockers – cherry-pick, dose response (AID 652062); format: functional, cell-based;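 also: luciferase signal from cell-cell fusion driven by HIV-1 clade B AD8 Env; potency is for inhibitors of fusion seen as a drop in luminescence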
[35] = blockers of HIV-1 envelope-mediated cell-cell fusion – cherry-pick, dose response (AID 652057); format: functional, cell-based
[36] = T. cruzi growth inhibition in host cells, dose response, cell-based, plate reader, dry powder, set 2 (AID 652275); format: functional
[37] = inhibitors of non-replicating M. tuberculosis, dose response, luciferase, dry powder (AID 651619); format: functional; conditions: Mycobacterium tuberculosis
[38] = inhibitors of non-replicating M. tuberculosis, dose response, luciferase, dry powder (AID 651620); format: functional; conditions: Mycobacterium tuberculosis
[39] = growth inhibition of replicating M. tuberculosis, dose response, counter-screen, dry powder, IC90 (AID 651617); format: functional; conditions: Mycobacterium tuberculosis
[40] = HepG2 hepatoma cell viability loss – plate reader, dry powder, cytotoxicity control, dose response (AID 651947); format: functional, cell-based
[41] = YAP1 overexpression rescue of CTGF inhibition – DLD1 cells, RT-qPCR, cherry-pick, mechanism study for YAP1 pathway inhibitor project, dose response (AID 1053127); format: functional, cell-based; conditions: DLD-1
[42] = CTGF mRNA reduction in DLD1 cells – cell-based, DLD1 colon cancer, RT-qPCR, cherry-pick, dose response (AID 1053122); format: functional; conditions: Cancer cell lines
[43] = viability loss in A549 lung cells – cell-based, 24 h, CellTiter-Glo luminescence, cherry-picks, cytotoxicity control, dose response (AID 1053115); format: functional; conditions: A549, 24 h

O=C1c2ccccc2NC(c2cccnc2)N1c1ccccc1F (stereo not drawn)
inactive: EC50 [2] > 69.5 µM
active: EC50 [1] > 7.72 µM

CCCOc1ccc(C(=O)NNC(=S)NC(=O)c2ccco2)cc1
inactive: IC50 [6] 44 µM | AC50 [8] > 52 µM
active: AC50 [3] 42.2 µM | CC50 [4] 17.4 µM | EC50 [5] 5.96 µM | CC50 [7] 7.6 µM | CC50 [9] 8.73 µM | IC50 [10] > 25 µM | CC50 [11] 20.7 µM | IC50 [12] 2.55 µM | AC50 [13] 36.8 µM

Cc1ccc(S(=O)(=O)N2[C@@H](c3ccc(C(C)(C)C)cc3)C(C(=O)O)=CC[C@H]2c2ccc(C(C)C)cc2)cc1
active: AC50 [14] 17.5 µM | IC50 [15] 5.04 µM

CC(=O)c1ccc(Oc2cc(C)nc(-n3nc(C)cc3C)n2)cc1
inactive: IC50 [21] > 80 µM | AC50 [25] > 30 µM
inconclusive: EC50 [23] 63.8 µM
active: EC50 [16] 339 nM | EC50 [17] 1.95 µM | EC50 [18] 4.5 µM | EC50 [19] 1.45 µM | EC50 [20] 440 nM | EC50 [22] 264 nM | AC50 [24] 15.8 µM | EC50 [26] 917 nM

O=C(Nc1ccccc1F)N1CCCCN2[C@@H](CO)[C@@H](c3ccc(C#Cc4ccccc4)cc3)[C@@H]2C1
active: AC50 [27] 8.65 µM | AC50 [28] 2.13 µM | AC50 [29] 9.78 µM | AC50 [30] 15.9 µM | AC50 [31] 7.45 µM

C[C@@H]1CN([C@H](C)CO)C(=O)c2cccc(NC(=O)c3ccncc3)c2O[C@H]1CN(C)CC1CCCCC1
active: IC50 [32] 961 nM | AC50 [33] 391 nM | AC50 [34] 4.84 µM | AC50 [35] 884 nM | AC50 [36] 303 nM

c1ccc(Cn2cc(CSc3nnc(C4CCC4)o3)nn2)cc1
active: IC90 [37] 4 µM | IC90 [38] 4 µM | IC90 [39] 250 µM

c1ccc(CSc2nnc(-c3cscn3)o2)cc1
active: AC50 [40] 34.4 µM

C[C@@H]1C/C=C/C[C@H](c2ccc(F)cc2)NC(=O)[C@@H](Cc2ccccc2)N(C)C(=O)c2ccccc2O1.C[C@@H]1C/C=C\C[C@H](c2ccc(F)cc2)NC(=O)[C@@H](Cc2ccccc2)N(C)C(=O)c2ccccc2O1
active: AC50 [41] 20.9 µM | AC50 [42] 4.01 µM

CN1c2ccc(-c3ccc(C#N)cc3)cc2[C@H]2[C@H](CCN2C(=O)C2CCCCC2)[C@@H]1CO
active: AC50 [43] 36.2 µM
